This note sets out measurements from patent US4433182A, “Insecticidal 2,2'-bridged[1,1'-biphenyl]-3-ylmethyl esters” (FMC Corporation, priority 1981, dated 1984).

Holding throughout (format): in vivo
For test [1], the system named is Mexican bean beetle (Epilachna varivestis). Briefly: Foliar application, Mexican bean beetle mortality. The following applies: MBB, foliar, 32 ppm, 48 hours, read-out: Mortality (% killed). The protocol:
(§1) The compounds were also tested in foliar applications at various concentrations in aqueous solutions containing 10% acetone and 0.25% emulsifier. The plants (English fava bean for pea aphid and pinto bean for the remaining species) were placed on a revolving turntable in a hood, and the test solutions were applied with a sprayer. The test solutions were applied to the upper and lower surfaces of the plant leaves while the turntable revolved 10 times (5 for upper surface and 5 for lower surface). The total spray time was approximately one minute, and the leaves were covered to runoff. In every case the lowest rate was applied first and the highest rate last. The plants were then allowed to dry. The treated leaves were removed and placed in 240 ml or 480 ml wax treated containers. Ten individuals of the appropriate species were placed in each container and the container capped. Mortality was read 48 hours post-treatment unless otherwise noted. Two replicates of ten individuals were made at each rate. Foliar evaluation used southern armyworm (Spodoptera eridania), Mexican bean beetle (Epilachna varivestis), pea aphid (Acyrthosiphon pisum), and twospotted spider mite (Tetranychus urticae).

Test [2] has the same test system. Briefly: Topical application to Mexican bean beetle. To be noted: MBB, 24 hours after application. How it is done:
(§2) The activity was evaluated in topical application to southern armyworm (Spodoptera eridania), Mexican bean beetle (Epilachna varivestis), large milkweed bug (Oncopeltus fasciatus), cabbage looper (Trichoplusia ni), and tobacco budworm (Heliothis virescens). Two replicates of 10 test larvae per replicate were placed in 9 cm petri dishes, each lined with a piece of filter paper and a food source. On the second or third dorsal thoracic segment of each larva was placed a 1 microliter droplet containing the desired amount of the test compound in acetone. The toxic effect of the compound was determined 24 hours after application. An insect was considered dead if it could no longer right itself and move in an oriented pattern.

In test [3] the test system is pea aphid (Acyrthosiphon pisum). Briefly: Foliar application, pea aphid mortality. The following applies: PA, foliar, 32 ppm, 48 hours, read-out: Mortality (% killed). The protocol:
as §1

Test [4] deals with twospotted spider mite (Tetranychus urticae). Briefly: Foliar application, twospotted spider mite mortality. To be noted: TSM, foliar, 500 ppm, 48 hours, read-out: Mortality (% killed). How it is done:
as §1

Test [5] concerns tobacco budworm (Heliothis virescens). Put plainly: Topical application to tobacco budworm. The following applies: TBW, 24 hours after application. How it is done:
as §2

For test [6], the system named is large milkweed bug (Oncopeltus fasciatus). Briefly: Topical application to large milkweed bug. The following applies: MWB, 24 hours after application. The protocol: as §2
The test system of test [7] is cabbage looper (Trichoplusia ni). Put plainly: Topical application to cabbage looper. To be noted: CL, 24 hours after application. How it is done: as §2
For test [8], the system named is southern armyworm (Spodoptera eridania). Briefly: Foliar application, southern armyworm mortality. To be noted: SAW, foliar, 4 ppm, 48 hours, read-out: Mortality (% killed). How it is done: as §1
The test system is the same in test [9]. Put plainly: Topical application to southern armyworm larvae. The following applies: SAW, 24 hours after application. The protocol:
as §2

The mortality is the share of the test organisms that died. Regarding `CC1(C)[C@H](C=C(Cl)Cl)[C@@H]1C(=O)OCc1cccc(-c2ccccc2)c1` (relative stereo) [Ref., [(1,1biphenyl)-3-yl]methyl cis3-(2,2-dichloroethenyl)-2,2-dimethylcyclopropanecarboxylate, reference compound], the mortality at 32 ppm in test [1] turned out to be 50%; in test [3], 70%. Further, the LD50 in test [2] is reported as 18 ng/insect; in [5], 2330 ng/insect; in [6], 620 ng/insect; in test [7] it was 560 ng/insect; in test [9], 27 ng/insect. Also, the mortality at 500 ppm in [4] was found to be 33%. In addition, the mortality at 4 ppm in test [8] was found to be 90%.
